In this assay the test system is L1210 leukemia ip in BDF1 mice, survival T/C. Put plainly: NCI In Vivo Anticancer Drug Screen. Data for tumor model L1210 Leukemia (intraperitoneal) in B6D2F1 (BDF1) mice. The conditions noted are these: endpoint: mean survival time, higher = longer survival. A digest of the protocol:
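Survival endpoint. Drug-treated group vs vehicle group, expressed as T divided by C. Tumor passaged by transplantation.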

The mark [1] stands for this setting: dose: 100.0 mg/kg/injection, schedule: Q01DX009 (ip), vehicle: saline.
Setting [2] is: dose: 100.0 mg/kg/injection, schedule: Q04DX003 (ip), vehicle: saline.
The mark [3] stands for this setting: dose: 200.0 mg/kg/injection, schedule: Q01DX009 (ip), vehicle: saline.
[4] abbreviates: dose: 200.0 mg/kg/injection, schedule: Q04DX003 (ip), vehicle: saline.
Where [5] appears, read: dose: 400.0 mg/kg/injection, schedule: Q04DX003 (ip), vehicle: saline.
[6] abbreviates: dose: 100.0 mg/kg/injection, schedule: Q01DX009 (ip), vehicle: Klucel (hydroxypropylcellulose) (HPC).
Where [7] appears, read: dose: 200.0 mg/kg/injection, schedule: Q01DX009 (ip), vehicle: Klucel (hydroxypropylcellulose) (HPC).
Setting [8] is: dose: 400.0 mg/kg/injection, schedule: Q01DX009 (ip), vehicle: Klucel (hydroxypropylcellulose) (HPC).
The mark [9] stands for this setting: dose: 100.0 mg/kg/injection, schedule: Q01DX009 (ip), vehicle: water.
[10] abbreviates: dose: 100.0 mg/kg/injection, schedule: Q04DX003 (ip), vehicle: water.
The mark [11] stands for this setting: dose: 200.0 mg/kg/injection, schedule: Q01DX009 (ip), vehicle: water.
The mark [12] stands for this setting: dose: 200.0 mg/kg/injection, schedule: Q04DX003 (ip), vehicle: water.
Where [13] appears, read: dose: 400.0 mg/kg/injection, schedule: Q01DX009 (ip), vehicle: water.
Setting [14] is: dose: 400.0 mg/kg/injection, schedule: Q04DX003 (ip), vehicle: water.
Where [15] appears, read: dose: 100.0 mg/kg/injection, schedule: Q04DX003 (ip), vehicle: Klucel (hydroxypropylcellulose) (HPC).
Setting [16] is: dose: 200.0 mg/kg/injection, schedule: Q04DX003 (ip), vehicle: Klucel (hydroxypropylcellulose) (HPC).
Setting [17] is: dose: 400.0 mg/kg/injection, schedule: Q04DX003 (ip), vehicle: Klucel (hydroxypropylcellulose) (HPC).
Setting [18] is: dose: 100.0 mg/kg/injection, schedule: Q04DX003 (ip), vehicle: saline with Tween-80.
Where [19] appears, read: dose: 200.0 mg/kg/injection, schedule: Q04DX003 (ip), vehicle: saline with Tween-80.
The mark [20] stands for this setting: dose: 100.0 mg/kg/injection, schedule: Q04DX002 (ip), vehicle: Klucel (hydroxypropylcellulose) (HPC).
Where [21] appears, read: dose: 200.0 mg/kg/injection, schedule: Q04DX002 (ip), vehicle: Klucel (hydroxypropylcellulose) (HPC).
The mark [22] stands for this setting: dose: 100.0 mg/kg/injection, schedule: Q01DX009 (ip), vehicle: saline with Tween-80.

Our source for the T/C values is PubChem BioAssay AID248 (DTP/NCI, 2004).

Where “and” joins values, the source holds several entries; their conditions need not be identical. Equal entries are not always repeated. Inconclusive results and toxic doses are left out.

Turning to `O=C(CCl)Nc1ccc(C(=O)O)cc1`, the T/C by setting is: (dose: 3.0 mg/kg/injection, schedule: Q01DX Z (ip), vehicle: carboxymethylcellulose (CMC)) 96 % of control; (dose: 7.0 mg/kg/injection, schedule: Q01DX Z (ip), vehicle: carboxymethylcellulose (CMC)) 102 % of control; (dose: 15.0 mg/kg/injection, schedule: Q01DX Z (ip), vehicle: carboxymethylcellulose (CMC)) 88 % of control; (dose: 30.0 mg/kg/injection, schedule: Q01DX Z (ip), vehicle: carboxymethylcellulose (CMC)) 104 % of control.
With `CC1CCC(O)C1O` (centres undefined), the T/C is 105 % of control under setting [1]; 94 % of control under setting [2]; 105 % of control under setting [3]; 97 % of control under setting [4]; 102 % of control (dose: 400.0 mg/kg/injection, schedule: Q01DX009 (ip), vehicle: saline); 97 % of control under setting [5].
For `CC(=O)Nc1ccc(S(=O)(=O)Nc2ccc(F)cc2)cc1`, the T/C under setting [6] was 96 % of control, the T/C under setting [7] was 98 % of control and the T/C under setting [8] was 102 % of control.
For `C=CCC(CC)(C(=O)O)C(=O)O`, the T/C is 96 % of control under setting [1]; 102 % of control under setting [2]; 93 % of control under setting [3]; 95 % of control under setting [4]; 86 % of control under setting [5].
For the compound `CCCCCCCCCC(=O)N/N=C/c1ccccc1O`, the T/C is, setting by setting: under setting [6], 93 % of control; under setting [7], 101 % of control; under setting [8], 105 % of control.
For the compound `COc1cc2c(cc1OC)C(=O)C(c1ccc3c(c1)OCO3)CC2` (centres undefined), the T/C by setting is: under setting [9], 102 % of control; under setting [10], 94 % of control; under setting [11], 91 % of control; under setting [12], 92 % of control; under setting [13], 101 % of control; under setting [14], 94 % of control.
With `CC(=O)Nc1ccc2[nH]c(C)cc(=O)c2c1`, the T/C was 98 % of control under setting [9]; 110 % of control under setting [10]; 96 % of control under setting [11]; 110 % of control under setting [12]; 100 % of control under setting [13]; 107 % of control under setting [14].
Consider `Cn1nc(NC(=O)C(C)(C)C)c(C#N)c1C#N`, for which the T/C runs as follows: (dose: 50.0 mg/kg/injection, schedule: Q04DX002 (ip), vehicle: saline with Tween-80) 95 % of control; (dose: 100.0 mg/kg/injection, schedule: Q04DX002 (ip), vehicle: saline with Tween-80) 95 % of control; (dose: 200.0 mg/kg/injection, schedule: Q04DX002 (ip), vehicle: saline with Tween-80) 98 % of control.
Take `O=C(CCc1ccc(N(CCCl)CCCl)cc1)NC1CCCC1`: the T/C under setting [15] is 116 % of control, the T/C under setting [16] was 115 % of control and the T/C under setting [17] is 115 % of control.
Consider `CC1=CC(=O)CC(C)C1` (centres undefined), for which the T/C by setting is: (dose: 100.0 mg/kg/injection, schedule: Q01DX001 (ip), vehicle: saline) 111 % of control; (dose: 200.0 mg/kg/injection, schedule: Q01DX001 (ip), vehicle: saline) 94 % of control; (dose: 400.0 mg/kg/injection, schedule: Q01DX001 (ip), vehicle: saline) 103 % of control.
As for `COc1ccc(Nc2ccc([N+](=O)[O-])cc2[N+](=O)[O-])cc1`, the T/C runs as follows: under setting [18], 96 % of control; under setting [19], 94 % of control; (dose: 400.0 mg/kg/injection, schedule: Q04DX003 (ip), vehicle: saline with Tween-80) 91 % of control.
As for `COc1ccc(Cl)cc1NC(=O)Oc1ccc(C=O)cc1OC`, the T/C was 102 % of control and 114 % of control under setting [6]; 98 % of control and 104 % of control under setting [7]; 104 % of control and 109 % of control under setting [8].
For the compound `O=[N+]([O-])c1cccc(N=P(c2ccccc2)(c2ccccc2)c2ccccc2)c1`, the T/C by setting is: under setting [6], 95 % of control; under setting [15], 117 % of control; under setting [7], 95 % of control; under setting [16], 95 % of control; under setting [8], 88 % of control; under setting [17], 88 % of control.
Take `Cc1ccc(S(=O)(=O)OCC(CO)(CO)[N+](=O)[O-])cc1`: the T/C by setting is: (dose: 50.0 mg/kg/injection, schedule: Q01DX009 (ip), vehicle: saline) 90 % of control; under setting [1], 92 % of control; under setting [2], 97 % of control; under setting [3], 90 % of control; under setting [4], 88 % of control.
With `O=C(Nc1ccc(NC(=O)OCc2ccccc2)c(Cl)c1)OCc1ccccc1`, the T/C was 93 % of control (dose: 75.0 mg/kg/injection, schedule: Q01DX001 (ip), vehicle: Klucel (hydroxypropylcellulose) (HPC)); 92 % of control (dose: 75.0 mg/kg/injection, schedule: Q01DX009 (ip), vehicle: Klucel (hydroxypropylcellulose) (HPC)); 95 % of control (dose: 150.0 mg/kg/injection, schedule: Q01DX001 (ip), vehicle: Klucel (hydroxypropylcellulose) (HPC)); 94 % of control (dose: 150.0 mg/kg/injection, schedule: Q01DX009 (ip), vehicle: Klucel (hydroxypropylcellulose) (HPC)); 95 % of control (dose: 300.0 mg/kg/injection, schedule: Q01DX001 (ip), vehicle: Klucel (hydroxypropylcellulose) (HPC)); 94 % of control (dose: 300.0 mg/kg/injection, schedule: Q01DX009 (ip), vehicle: Klucel (hydroxypropylcellulose) (HPC)).
Consider `N/C(=N\OC(=O)c1ccccc1)c1ccccc1`, for which the T/C is, setting by setting: (dose: 50.0 mg/kg/injection, schedule: Q04DX002 (ip), vehicle: Klucel (hydroxypropylcellulose) (HPC)) 96 % of control; under setting [20], 104 % of control; under setting [21], 93 % of control.
Take `CC(C)N=C(N)c1ccc(NC(=O)c2ccc(C(=O)Nc3ccc(C(N)=NC(C)C)cc3)cc2)cc1`: the T/C reads like this: (dose: 0.12 mg/kg/injection, schedule: Q01DX Z (ip), vehicle: water) 101 % of control; (dose: 0.25 mg/kg/injection, schedule: Q01DX Z (ip), vehicle: water) 108 % of control; (dose: 0.5 mg/kg/injection, schedule: Q01DX Z (ip), vehicle: water) 113 % of control; (dose: 1.0 mg/kg/injection, schedule: Q01DX Z (ip), vehicle: water) 162 % of control; (dose: 1.25 mg/kg/injection, schedule: Q01DX Z (ip), vehicle: other) 237 % of control; (dose: 2.5 mg/kg/injection, schedule: Q01DX Z (ip), vehicle: other) 172 % of control. Moreover, the T/C by setting is: (dose: 5.0 mg/kg/injection, schedule: Q01DX Z (ip), vehicle: other) 118 % of control; (dose: 62.0 mg/kg/injection, schedule: Q01DX Z (oral), vehicle: alkali diluted with CMC) 104 % of control; (dose: 125.0 mg/kg/injection, schedule: Q01DX Z (oral), vehicle: alkali diluted with CMC) 93 % of control; (dose: 250.0 mg/kg/injection, schedule: Q01DX Z (oral), vehicle: alkali diluted with CMC) 96 % of control; (dose: 500.0 mg/kg/injection, schedule: Q01DX Z (oral), vehicle: alkali diluted with CMC) 90 % of control.
For `O=C(N/N=C/Cc1ccccc1)C(=O)N/N=C/Cc1ccccc1`, the T/C is, setting by setting: (dose: 50.0 mg/kg/injection, schedule: Q01DX009 (ip), vehicle: saline with Tween-80) 102 % of control; under setting [22], 91 % of control.
Regarding `OC1C/C=C/CCCCC1` (centres undefined), the T/C is, setting by setting: under setting [20], 106 % of control; under setting [21], 100 % of control; (dose: 400.0 mg/kg/injection, schedule: Q04DX002 (ip), vehicle: Klucel (hydroxypropylcellulose) (HPC)) 103 % of control.
Regarding `CC(C)C1CCC2=C(CCC3C(C)(C(=O)O)CCCC23C)C1` (centres undefined), the T/C reads like this: under setting [22], 89 % of control; (dose: 200.0 mg/kg/injection, schedule: Q01DX009 (ip), vehicle: saline with Tween-80) 91 % of control; (dose: 400.0 mg/kg/injection, schedule: Q01DX009 (ip), vehicle: saline with Tween-80) 89 % of control.
For `C=C(Cl)CSCCS`, the T/C is 95 % of control under setting [18] and 106 % of control under setting [19].
